System: MV-4-11 cells
Test: Gene expression microarray analysis (Affymetrix PrimeView) and GSEA
Type: cell-based, human
Parameters: RFU PODN (11730768_x_at) / Fold change /veh PODN (11730768_x_at) / RFU LINC00158 (11744669_a_at) / Fold change /veh LINC00158 (11744669_a_at) / RFU DUSP10 (11751237_a_at) / Fold change /veh DUSP10 (11751237_a_at) / RFU ID3 (11757404_x_at) / Fold change /veh ID3 (11757404_x_at) / RFU PLEKHG5 (11737974_s_at) / Fold change /veh PLEKHG5 (11737974_s_at) / RFU LRRC4B (11730491_at) / Fold change /veh LRRC4B (11730491_at) / RFU GIMAP4 (11747438_a_at) / Fold change /veh GIMAP4 (11747438_a_at) / RFU KRT8 (11758183_x_at) / Fold change /veh KRT8 (11758183_x_at) / RFU CNN1 (11734310_a_at) / Fold change /veh CNN1 (11734310_a_at) / RFU VPS37D (11726825_at) / Fold change /veh VPS37D (11726825_at) / RFU C10orf10 (11716522_x_at) / Fold change /veh C10orf10 (11716522_x_at) / RFU KIR2DL2 /// KIR2DL4 /// KIR2DL5A /// KIR2DL5B /// KIR2DS1 /// KIR2DS2 /// KIR2DS3 /// KIR2DS4 /// KIR3DL3 /// KIR3DL3 /// KIR3DS1 (11738374_at) / Fold change /veh KIR2DL2 /// KIR2DL4 /// KIR2DL5A /// KIR2DL5B /// KIR2DS1 /// KIR2DS2 /// KIR2DS3 /// KIR2DS4 /// KIR3DL3 /// KIR3DL3 /// KIR3DS1 (11738374_at) / RFU C1QL1 (11718748_at) / Fold change /veh C1QL1 (11718748_at) / RFU TMPRSS4 (11747572_a_at) / Fold change /veh TMPRSS4 (11747572_a_at) / RFU HAMP (11756126_x_at) / Fold change /veh HAMP (11756126_x_at) / RFU RNFT2 (11725882_a_at) / Fold change /veh RNFT2 (11725882_a_at) / RFU NR4A2 (11747474_a_at) / Fold change /veh NR4A2 (11747474_a_at) / RFU ABCC12 (11746883_a_at) / Fold change /veh ABCC12 (11746883_a_at) / RFU TMEM136 (11760407_x_at) / Fold change /veh TMEM136 (11760407_x_at) / RFU CLDN22 /// WWC2 (11732394_at) / Fold change /veh CLDN22 /// WWC2 (11732394_at) / RFU HLA-DPB1 (11760878_x_at) / Fold change /veh HLA-DPB1 (11760878_x_at) / RFU SPINT1 (11716480_a_at) / Fold change /veh SPINT1 (11716480_a_at) / RFU GAP43 (11754022_s_at) / Fold change /veh GAP43 (11754022_s_at) / RFU A4GNT (11735810_at) / Fold change /veh A4GNT (11735810_at) / RFU PRB3 (11715151_x_at) / Fold change /veh PRB3 (11715151_x_at) / RFU TUBB4B (11761932_at) / Fold change /veh TUBB4B (11761932_at) / RFU CAPN14 (11732068_a_at) / Fold change /veh CAPN14 (11732068_a_at) / RFU TMCC2 (11721928_a_at) / Fold change /veh TMCC2 (11721928_a_at) / RFU IRGQ (11745062_a_at) / Fold change /veh IRGQ (11745062_a_at) / RFU FAM174B (11720279_a_at) / Fold change /veh FAM174B (11720279_a_at) / RFU TMPRSS4 (11748680_a_at) / Fold change /veh TMPRSS4 (11748680_a_at) / RFU FAM212B (11763350_a_at) / Fold change /veh FAM212B (11763350_a_at) / RFU PLEKHG5 (11743358_a_at) / Fold change /veh PLEKHG5 (11743358_a_at) / RFU ZSCAN30 (11745921_a_at) / Fold change /veh ZSCAN30 (11745921_a_at) / RFU CMKLR1 (11741424_a_at) / Fold change /veh CMKLR1 (11741424_a_at) / RFU LOC101060620 /// MAPK8IP1 (11723275_at) / Fold change /veh LOC101060620 /// MAPK8IP1 (11723275_at) / RFU SPTSSB (11747773_x_at) / Fold change /veh SPTSSB (11747773_x_at) / RFU PRSS12 (11739890_at) / Fold change /veh PRSS12 (11739890_at) / RFU BIN1 (11741810_x_at) / Fold change /veh BIN1 (11741810_x_at) / RFU WNT11 (11732464_a_at) / Fold change /veh WNT11 (11732464_a_at) / RFU C10orf10 (11716521_a_at) / Fold change /veh C10orf10 (11716521_a_at) / RFU C5orf56 (11738089_at) / Fold change /veh C5orf56 (11738089_at) / RFU CYB561 (11721691_x_at) / Fold change /veh CYB561 (11721691_x_at) / RFU ANKRD19P (11752326_a_at) / Fold change /veh ANKRD19P (11752326_a_at) / RFU OR2T12 /// OR2T33 /// OR2T8 (11738714_s_at) / Fold change /veh OR2T12 /// OR2T33 /// OR2T8 (11738714_s_at) / RFU VCAN (11748164_a_at) / Fold change /veh VCAN (11748164_a_at) / RFU JSRP1 (11732532_at) / Fold change /veh JSRP1 (11732532_at) / RFU KRTAP10-11 (11738290_x_at) / Fold change /veh KRTAP10-11 (11738290_x_at) / RFU MYO3A (11730013_a_at) / Fold change /veh MYO3A (11730013_a_at) / RFU EBF3 (11725865_a_at) / Fold change /veh EBF3 (11725865_a_at) / RFU CAMK2N1 (11719241_x_at) / Fold change /veh CAMK2N1 (11719241_x_at) / RFU C5orf56 (11738088_a_at) / Fold change /veh C5orf56 (11738088_a_at) / RFU OLFML3 (11715873_a_at) / Fold change /veh OLFML3 (11715873_a_at) / RFU LOC100653217 /// NTM (11731650_a_at) / Fold change /veh LOC100653217 /// NTM (11731650_a_at) / RFU MAPK11 (11762145_a_at) / Fold change /veh MAPK11 (11762145_a_at) / RFU FIZ1 (11724087_x_at) / Fold change /veh FIZ1 (11724087_x_at) / RFU OASL (11726364_x_at) / Fold change /veh OASL (11726364_x_at) / RFU SOX15 (11748057_x_at) / Fold change /veh SOX15 (11748057_x_at) / RFU CD79A (11719716_a_at) / Fold change /veh CD79A (11719716_a_at) / RFU HIST1H1D (11736915_at) / Fold change /veh HIST1H1D (11736915_at) / RFU CASKIN2 (11723855_a_at) / Fold change /veh CASKIN2 (11723855_a_at) / RFU LOC730098 (11760151_x_at) / Fold change /veh LOC730098 (11760151_x_at) / RFU OR4N2 (11742367_at) / Fold change /veh OR4N2 (11742367_at) / RFU PRRT2 (11749266_a_at) / Fold change /veh PRRT2 (11749266_a_at) / RFU SNX32 (11753110_a_at) / Fold change /veh SNX32 (11753110_a_at) / RFU CDHR5 (11726645_a_at) / Fold change /veh CDHR5 (11726645_a_at) / RFU RCAN1 (11760418_a_at) / Fold change /veh RCAN1 (11760418_a_at) / RFU FAM167A (11723789_a_at) / Fold change /veh FAM167A (11723789_a_at) / RFU FAM26E (11764081_at) / Fold change /veh FAM26E (11764081_at) / RFU ISYNA1 (11749810_s_at) / Fold change /veh ISYNA1 (11749810_s_at) / RFU ACY1 (11761880_at) / Fold change /veh ACY1 (11761880_at) / RFU 11764098_at / Fold change /veh 11764098_at / RFU SAMD14 (11745864_x_at) / Fold change /veh SAMD14 (11745864_x_at) / RFU NPB (11741838_a_at) / Fold change /veh NPB (11741838_a_at) / RFU TMPRSS6 (11731388_a_at) / Fold change /veh TMPRSS6 (11731388_a_at) / RFU KRTAP10-2 (11738614_at) / Fold change /veh KRTAP10-2 (11738614_at) / RFU ARHGAP8 /// PRR5-ARHGAP8 (11727945_x_at) / Fold change /veh ARHGAP8 /// PRR5-ARHGAP8 (11727945_x_at) / RFU KRTAP5-7 /// NADSYN1 (11734609_at) / Fold change /veh KRTAP5-7 /// NADSYN1 (11734609_at) / RFU RASL12 (11751679_a_at) / Fold change /veh RASL12 (11751679_a_at) / RFU CDKN2B (11736163_a_at) / Fold change /veh CDKN2B (11736163_a_at) / RFU PRF1 (11729649_at) / Fold change /veh PRF1 (11729649_at) / RFU, ZNF638 /// ZNF638-IT1 / Fold change vs veh, ZNF638 /// ZNF638-IT1 / RFU, PANK3 / Fold change vs veh, PANK3 / RFU, SH3YL1 / Fold change vs veh, SH3YL1 / RFU, ZEB2 / Fold change vs veh, ZEB2 / RFU, NRIP1 / Fold change vs veh, NRIP1 / RFU, PTTG1IP / Fold change vs veh, PTTG1IP / RFU, CAPN2 / Fold change vs veh, CAPN2 / RFU, MED14 / Fold change vs veh, MED14 / RFU, SNORA58 / Fold change vs veh, SNORA58 / RFU, C1orf63 / Fold change vs veh, C1orf63 / RFU, LRRFIP1 / Fold change vs veh, LRRFIP1 / RFU, NDUFAF7 / Fold change vs veh, NDUFAF7 / RFU, SLC12A2 / Fold change vs veh, SLC12A2 / RFU, IBTK / Fold change vs veh, IBTK / RFU, ESF1 / Fold change vs veh, ESF1 / Fold change vs veh, TMEM50B / RFU, TAOK1 / Fold change vs veh, TAOK1 / RFU, ACBD3 / Fold change vs veh, ACBD3 / RFU, TMA16 / Fold change vs veh, TMA16 / RFU, RWDD3 / Fold change vs veh, RWDD3 / RFU, BCAT1 / Fold change vs veh, BCAT1 / RFU, EDEM3 / Fold change vs veh, EDEM3 / RFU, TMEM33 / Fold change vs veh, TMEM33 / RFU, WDR75 / Fold change vs veh, WDR75 / RFU, AHCTF1 / Fold change vs veh, AHCTF1 / RFU, TFRC / Fold change vs veh, TFRC / RFU, ZDHHC17 / Fold change vs veh, ZDHHC17 / RFU, NOM1 / Fold change vs veh, NOM1 / RFU, ARL8B / Fold change vs veh, ARL8B / RFU, ZBTB11 / Fold change vs veh, ZBTB11 / RFU, TAMM41 / Fold change vs veh, TAMM41 / RFU, KIAA1704 /// LOC100996395 / Fold change vs veh, KIAA1704 /// LOC100996395 / RFU, ING1 / Fold change vs veh, ING1 / RFU, TRMT61B / Fold change vs veh, TRMT61B / RFU, FUBP3 / Fold change vs veh, FUBP3 / RFU, TP53 / Fold change vs veh, TP53 / RFU, TNKS2 / Fold change vs veh, TNKS2 / RFU, ZFP14 / Fold change vs veh, ZFP14 / RFU, ACTR2 / Fold change vs veh, ACTR2 / RFU, PPP3R1 / Fold change vs veh, PPP3R1 / RFU, PIK3R1 / Fold change vs veh, PIK3R1 / RFU, HNRNPA1 / Fold change vs veh, HNRNPA1 / RFU, RNF170 / Fold change vs veh, RNF170 / RFU, ZNF28 / Fold change vs veh, ZNF28 / RFU, RNGTT / Fold change vs veh, RNGTT / RFU, OGT / Fold change vs veh, OGT / RFU, BRD1 / Fold change vs veh, BRD1 / RFU, MARS / Fold change vs veh, MARS / RFU, ZNF655 / Fold change vs veh, ZNF655 / RFU, FAHD1 / Fold change vs veh, FAHD1 / RFU, BDP1 / Fold change vs veh, BDP1 / RFU, LRRCC1 / Fold change vs veh, LRRCC1 / RFU, ARID1A / Fold change vs veh, ARID1A / RFU, ZNF146 / Fold change vs veh, ZNF146 / RFU, ZNF330 / Fold change vs veh, ZNF330 / RFU, GPN3 / Fold change vs veh, GPN3 / RFU, C9orf123 / Fold change vs veh, C9orf123 / RFU, N4BP2L2 / Fold change vs veh, N4BP2L2 / RFU, ARFIP1 / Fold change vs veh, ARFIP1 / RFU, FAM179B / Fold change vs veh, FAM179B / RFU, BCL10 / Fold change vs veh, BCL10 / RFU, UHRF1BP1L / Fold change vs veh, UHRF1BP1L / RFU, BET1 / Fold change vs veh, BET1 / RFU, CNOT2 / Fold change vs veh, CNOT2 / RFU, ZNF268 / Fold change vs veh, ZNF268 / Fold change vs veh, ZNF507 / RFU, DGCR2 / Fold change vs veh, DGCR2 / RFU, WDSUB1 / Fold change vs veh, WDSUB1 / Fold change vs veh, HSP90B1 /// MIR3652 / RFU, ADSS / Fold change vs veh, ADSS / RFU, GK / Fold change vs veh, GK / RFU, ZNF148 / Fold change vs veh, ZNF148 / RFU, TAF9 / Fold change vs veh, TAF9 / RFU, SLC1A5 / Fold change vs veh, SLC1A5 / RFU, SLMO2 / Fold change vs veh, SLMO2 / RFU, ABCC4 / Fold change vs veh, ABCC4 / RFU, LOC101060439 /// RAP1B / Fold change vs veh, LOC101060439 /// RAP1B / RFU, RFX7 / Fold change vs veh, RFX7 / RFU, GTPBP10 / Fold change vs veh, GTPBP10 / RFU, CNEP1R1 / Fold change vs veh, CNEP1R1 / RFU, BIVM-ERCC5 /// ERCC5 / Fold change vs veh, BIVM-ERCC5 /// ERCC5 / RFU, ILF3 / Fold change vs veh, ILF3 / RFU 11762660_at / Fold change /veh 11762660_at / RFU VCAN (11757783_s_at) / Fold change /veh VCAN (11757783_s_at) / RFU DDX43 (11728927_at) / Fold change /veh DDX43 (11728927_at) / RFU KRT8 (11758188_x_at) / Fold change /veh KRT8 (11758188_x_at) / RFU NKD1 (11759106_at) / Fold change /veh NKD1 (11759106_at) / RFU SRD5A1 (11742802_a_at) / Fold change /veh SRD5A1 (11742802_a_at) / RFU TPSAB1 /// TPSB2 (11721975_s_at) / Fold change /veh TPSAB1 /// TPSB2 (11721975_s_at) / RFU GSTM3 (11746129_a_at) / Fold change /veh GSTM3 (11746129_a_at) / RFU IL23R (11737362_x_at) / Fold change /veh IL23R (11737362_x_at) / RFU TMEM51 (11727254_a_at) / Fold change /veh TMEM51 (11727254_a_at) / RFU PIWIL2 (11732686_x_at) / Fold change /veh PIWIL2 (11732686_x_at) / RFU ORM1 (11744905_x_at) / Fold change /veh ORM1 (11744905_x_at) / RFU CCDC152 (11743942_at) / Fold change /veh CCDC152 (11743942_at) / RFU ECM1 (11717891_a_at) / Fold change /veh ECM1 (11717891_a_at) / RFU IL23R (11748794_a_at) / Fold change /veh IL23R (11748794_a_at) / RFU TNFAIP8L3 (11732012_x_at) / Fold change /veh TNFAIP8L3 (11732012_x_at) / RFU MBOAT4 (11741988_at) / Fold change /veh MBOAT4 (11741988_at) / RFU 11764193_at / Fold change /veh 11764193_at / RFU TMEM53 (11763286_at) / Fold change /veh TMEM53 (11763286_at) / RFU MAGEB2 (11727129_at) / Fold change /veh MAGEB2 (11727129_at) / RFU TMEM200A (11744735_a_at) / Fold change /veh TMEM200A (11744735_a_at) / RFU CCDC152 (11751479_a_at) / Fold change /veh CCDC152 (11751479_a_at) / RFU FAM211A (11726209_a_at) / Fold change /veh FAM211A (11726209_a_at) / RFU RGS16 (11746705_a_at) / Fold change /veh RGS16 (11746705_a_at) / RFU VCAN (11755009_s_at) / Fold change /veh VCAN (11755009_s_at) / RFU RHOB (11743442_s_at) / Fold change /veh RHOB (11743442_s_at) / RFU RGS16 (11720943_a_at) / Fold change /veh RGS16 (11720943_a_at) / RFU RGS16 (11720944_at) / Fold change /veh RGS16 (11720944_at) / RFU, VPS4B / Fold change vs veh, VPS4B / RFU, CREB1 / Fold change vs veh, CREB1 / RFU, DNAJC13 / Fold change vs veh, DNAJC13 / RFU, GNAQ / Fold change vs veh, GNAQ / RFU, CDK5R1 / Fold change vs veh, CDK5R1 / RFU, ZRANB3 / Fold change vs veh, ZRANB3 / RFU, CUL4A / Fold change vs veh, CUL4A / RFU, CCNY / Fold change vs veh, CCNY / RFU, UFL1 / Fold change vs veh, UFL1 / RFU, COG3 / Fold change vs veh, COG3 / RFU, DIAPH2 / Fold change vs veh, DIAPH2 / RFU, SKA2 / Fold change vs veh, SKA2 / RFU, AFF3 / Fold change vs veh, AFF3 / RFU, LMF1 / Fold change vs veh, LMF1 / RFU, IPO11 / Fold change vs veh, IPO11 / RFU, DFFB / Fold change vs veh, DFFB / RFU, FOXP1 / Fold change vs veh, FOXP1 / RFU, CARD8 / Fold change vs veh, CARD8 / RFU, STRN3 / Fold change vs veh, STRN3 / RFU, ADK / Fold change vs veh, ADK / RFU, RASSF2 / Fold change vs veh, RASSF2 / RFU, WIPF1 / Fold change vs veh, WIPF1 / RFU, LARP1B / Fold change vs veh, LARP1B / RFU, RASA1 / Fold change vs veh, RASA1 / RFU, RB1 / Fold change vs veh, RB1 / RFU, PPFIA1 / Fold change vs veh, PPFIA1 / RFU, MAT2A / Fold change vs veh, MAT2A / RFU, CCT5 / Fold change vs veh, CCT5 / RFU, WDR92 / Fold change vs veh, WDR92 / RFU, CUX1 / Fold change vs veh, CUX1 / RFU, TTC7A / Fold change vs veh, TTC7A / RFU, TMEM135 / Fold change vs veh, TMEM135 / RFU, DEPTOR / Fold change vs veh, DEPTOR / RFU, CPM / Fold change vs veh, CPM / RFU, DNAJB6 / Fold change vs veh, DNAJB6 / RFU, CACNA2D3 / Fold change vs veh, CACNA2D3 / RFU, DTX4 / Fold change vs veh, DTX4 / RFU, TFCP2 / Fold change vs veh, TFCP2 / RFU, GMCL1 /// GMCL1P1 / Fold change vs veh, GMCL1 /// GMCL1P1 / RFU, AEBP2 / Fold change vs veh, AEBP2 / RFU, SNHG1 /// SNORD22 /// SNORD25 /// SNORD26 /// SNORD27 /// SNORD28 /// SNORD29 /// SNORD31 / Fold change vs veh, SNHG1 /// SNORD22 /// SNORD25 /// SNORD26 /// SNORD27 /// SNORD28 /// SNORD29 /// SNORD31 / Fold change (Aza/veh), C12orf56 (ProbeSet 11735607_a_at) / Fold change (ACY-1035/veh), C12orf56 (ProbeSet 11735607_a_at) / Fold change (Aza/veh), FGFR1OP (ProbeSet 11751329_s_at) / Fold change (ACY-1035/veh), FGFR1OP (ProbeSet 11751329_s_at) / Fold change (Aza/veh), VPS36 (ProbeSet 11739960_a_at) / Fold change (ACY-1035/veh), VPS36 (ProbeSet 11739960_a_at) / RFU SYPL1 (11715823_x_at) / Fold change /veh SYPL1 (11715823_x_at) / RFU IGFBP7 (11715501_s_at) / Fold change /veh IGFBP7 (11715501_s_at) / RFU REEP3 (11722064_at) / Fold change /veh REEP3 (11722064_at) / RFU IGLL1 (11728026_x_at) / Fold change /veh IGLL1 (11728026_x_at): dose or concentration left out as unconfirmed
Settings: MV-4-11 cells, 48 hours

Nc1ncn([C@@H]2O[C@H](CO)[C@@H](O)[C@H]2O)c(=O)n1 [azacitidine]
RFU VCAN (11748164_a_at): 5.82 RFU
